Reference: patent publication US6171575A, “Method of radioisotopic assessment of the integrity and function of the nose-brain barrier” (priority 1998, dated 2001)
Entries after “also recorded” stand apart in the source; their conditions may differ. Where two headings read alike, the source gives them in different places.

Columns and labels:
[1] = Radioisotopic penetration across the nose-brain barrier (NBB) after intranasal spray, gamma camera ROI
Source text: (§1) A. The radiopharmaceutical was sprayed deep into the nose through the nostril as the examinee laid on the scintigraphic table with the head placed in vertical position. B. The resultant radioactivity residing on the olfactory mucosa. C. The region of interest (ROI) placed just beneath the nose-brain barrier on the (cathode Ray Tube) so as to record the penetrating radioactivity. D. Pharyngeal radioactivity escaped from the olfactory pit.
(§2) The mixture was sprayed into the depth of the nose. […] In order to protect the nasal mucosa, vinyl tubing was attached to the end of the nozzle of a sprayer. As the head of an examinee was positioned vertically, so as to allow the droplets to fall onto the olfactory mucosa, the examiner sprayed the mixture deep into one of the nostrils; and
(§3) (2) Assessing the radioisotopic penetration across the NBB The radioisotopic spray side of the head of an examinee was placed against the detector collimator of a gamma camera for 10 minutes. Radioisotopic penetration was defined as the amount of radioactivity recorded in the regions of interest (ROIs) placed over the intracranial space adjoing the cribrijon lamine. The change of the recorded radioactivity in this ROI was analyzed along with that in a remote control brain area.
(§4) Test were performed to determine the penetration potential of radio-pharmaceuticals of ^99m Tc-HMPAO and ^99m Tc-DTPA.

[2] = renogrammatic analysis; imaging and dynamic studies of cerebrospinal fluid flow; cited from earlier work
[3] = cited from earlier work
[4] = in vivo
Source text: as §1, §2, §3, §4

[5] = agent that circulates in the blood; cited from earlier work

| passage of the nose-brain barrier [4] | SMILES | radioisotopic penetration across the NBB (radioactivity in juxta-cribriform brain ROI) ([1]; healthy person, intranasal spray, 10 minutes gamma camera) | passage of the nose-brain barrier ([1]; overall conclusion, human beings, olfactory pathology and/or healthy control) | time after which radioactivity in the juxta-cribriform brain increased significantly ([1]; person with anosmia, left nostril) [min] | radioisotopic penetration across the NBB (radioactivity in juxta-cribriform brain ROI) ([1]; person with anosmia, left nostril, 148 MBq per 0.2 ml puff (example preparation)) | extracellular spreading [2] | water solubility [3] | passage through the blood-brain barrier [5] |
| --- | --- | --- | --- | --- | --- | --- | --- | --- |
| – | O=C([O-])CN(CCN(CC(=O)[O-])CC(=O)[O-])CCN(CC(=O)[O-])CC(=O)[O-].[99Tc+4] [^99m Tc-DTPA, 99mTc-diethylenetriaminepenta-acetic acid] | the change was statistically insignificant; also recorded: increased but without any statistical significance | shown to pass the nose-brain barrier | 5 | significant increase in radioactivity in the juxta-cribriform lamional brain; also recorded: increased significantly | spreads extracellularly | water-soluble | – |
| shown not to pass the nose-brain barrier | C/C(=N\[O-])[C@@H](C)[N-]CC(C)(C)C[N-][C@H](C)/C(C)=N/O.[O]=[99Tc+3] (racemic) [^99m Tc-HMPAO] | – | – | – | – | – | – | passes through the blood-brain barrier |
